According to patent US10464907B2, “Compound having HSP90 inhibitory activity or pharmaceutically acceptable salt thereof, and medical use thereof” (priority 2016, dated 2019):
Where two headings read alike, the source gives them in different places.

Key:
LogP = format: physicochemical; conditions: called measured values of LogP
Experimental: All experimental data were analyzed using Prism software (version 5.0, Graphpad Software, San Diego, Calif.). In addition, tPSA (Topological Polar Surface Area) calculated using Chemdraw software and the measured values of LogP are shown in Tables 1 and 2 below.

H1975 [1] = test: MTS cell proliferation / survival assay; format: cell-based
Experimental: Sk-Br3 (Korean cell line bank), a breast cancer cell, and H1975 cell (ATCC), a nonsmall cell lung cancer, were cultured in RPMI 1640 containing 25 mM HEPES (4-(2-hydroxyethyl)-1-piperazineethanesulfonic acid) and RPMI 1640 containing L-glutamine (containing streptomycin ([…]), penicillin (100 units/mL) and 10% fetal bovine serum (FBS)).
The cells were cultured under a humidified atmosphere of 37° C. and 5% CO2.
Next, non-metastatic lung cancer cells were treated with Compound 17 and the cell proliferation rate or cell survival rate was measured by MTS [3-(4,5-dimethylthiazol-2-yl)-5-(3-carboxymethoxyphenyl)-2-2H-tetrazolium, inner salt] analysis.
Cells were dispensed in 96-well plates at 3000 cell/well (Sk-Br3) and 2000 cell/well (H1975), and 100 μL of the medium was added per well and then was incubated overnight.
Cell proliferation was evaluated using the Promega Cell Titer 96 Aqueous One Solution cell proliferation assay.
After compound and cell culture, 20 μL of assay substrate solution was added to each well and incubated at 37° C. for an additional 1 hour.
Cell proliferation was confirmed by measuring the absorbance at 490 nm using a microplate reader (Tecan Infinite F200 Proplate reader).

[2] = tested on: HSP90 client protein of EGFR, Her2, Met, Akt, c-Raf, Cpk4; test: Protein expression analysis (western blotting), Compound 17; format: cell-based; conditions: 24 hours, FIG. 4
Experimental: Next, the cells were dispensed into 100 mm culture dishes (1×10^6/dish) and adhered to the bottom surface overnight. Compound 17 at a concentration of 0.05, 0.1, 0.5 or 1 μM was added to the cells, followed by further culture for 24 hours.
In addition, cells were treated with DMSO (1%) or geladinamycin (1 μM) as a control and cultured for 24 hours.
The cultured cells were harvested and lysed in ice-cold lysis buffer (23 mM Tris-HCl pH 7.6, 130 mM NaCl, 1% NP40, 1% sodium deoxycholate, 0.1% SDS (sodium dodecylsulfate)), and 30 μg of the lysate was separated by SDS-PAGE (SDS-polyacrylamide gel electrophoresis) and transferred to a PVDF membrane (Bio-Rad).
Membranes were blocked with TBST (Tween 20 containing Tris-Buffered Saline) containing 5% skim milk and incubated with the respective primary antibodies [EGFR (Epidermal growth factor receptor), Her2 (human epidermal growth factor receptor type 2), Met, N-cadherin, E-cadherin, α-tubulin, acetyl-α-tubulin, protein kinase B (Akt), c-Raf, Cdk4 (Cyclin-dependent kinase 4), HSP90, HSP70, PARP (Poly ADT-ribose Polymerase), caspase 3, cleaved caspase 3, truncated caspase 8, B-cell lymphoma 2 (Bcl-2), Bax or β-Actin, purchased from Cell Signaling Technology (USA)].
After binding to a secondary antibody conjugated with horseradish peroxidase, the protein was visualized by ECL (electrochemiluminescence, GE healthcare, USA).

H1975 [3] = test: H1975 colony formation (clogenic assay); format: cell-based; conditions: 0.05 μM, 3 weeks, FIG. 3
Experimental: H1975 cells were treated with Compound 17 at a concentration of 0.05 or 0.5 μM for 3 weeks and then clogenic assay was performed.
First, RPMI1640 medium (10% FBS, 0.48% agar) was added to a 6-well plate and hardened, and then, 10000 cells (H1975) were dispensed in a medium containing RPMI1640 medium (10% FBS, 0.33% agar) and solidified. After solidification, the cells were treated with compound at a concentration of 0.05 or 0.5 μM for 24 hours, followed by culturing for 3 weeks, and then colony formation was confirmed using a crystal violet staining solution.

H1975 cells = test: MTS cell viability in H1975 cells resistant to Gefitinib; format: cell-based; conditions: H1975, 3 days
Experimental: To confirm the cell viability according to the concentration of the compound synthesized in H1975 cells (ATCC) resistant to Gefitinib, MTS [3-(4,5-dimethylthiazol-2-yl)-5-[…]carboxymethoxyphenyl)-2-(4-sulfophenyl)-2H-tetrazolium, inner salt] analysis was performed. When the cells were cultured so as to occupy 80% of the bottom of the culture dish, the cells were detached and diluted with RPMI 1640 medium to a concentration of 1.5×10^3 cells/well. Each 100 μL of the suspension was added to each well of a 96-well plate and cultured for 14 hours. Then, the medium was changed to the culture solution treated with compound of each concentration each concentration (1a-g: 0, 1, 5, 10, 30, 50 or 100 μM, 14a-I, 16a, b, 21a-f: 0, 0.01, 0.1, 1, 5, 10, 30, 50, 70 or 100 μM), and cultured for 3 days. Each 20 μL of the MTS solution was dispensed into each well and reacted for 1 hour at 37° C. in an incubator supplied with 5% CO2.

[4] = tested on: HSP90 client proteins (Her2, EGFR, Met, Akt, c-Raf) and HSP70 in H1975 cells; test: Analysis of protein expression (western blot), Compound 21f; format: cell-based
Experimental: Compound 21f having good efficacy was selected and HSP90 client protein proliferation effect in the same cell line was confirmed, in which the HSP90 client proteins were Her2 (human EGFR-related 2), EGFR (epidermal growth factor receptor), Met and c-Raf were used.
H1975 cells resistant to Gefitinib were cultured in a medium supplemented with 10% fetal bovine serum (FBS) for 24 hours, and the cells were detached, harvested and diluted with a RPMI 1640 medium so as to be 5×10^5 cells/well. Each 5 mL of the suspension was added to […] culture dish and cultured for 24 hours. Then, the medium was changed to the culture solution treated with each compound of concentration (21f: 0, 0.05, 0.1, 0.5 or 1 μM, GA: 1 μM), and cultured for 24 hours. After culture, the cells were harvested and centrifuged at 1300 rpm for 5 minutes at 4° C., and the supernatant was removed. The pellet was washed with phosphate buffered saline, centrifuged once again under the same conditions, and the supernatant was removed. Lysis buffer was added to the remaining pellet and lysed by vortexing at 5 minute intervals for 30 minutes. The supernatant was separated by centrifugation at 16000 rcf for 4 minutes at 4° C., and proteins were quantified using BCA ([…]) kit. SDS-PAGE (sodium dodecylsulfate-polyacrylamide gel electrophoresis) was performed using 10, 12% running gel and 4% stacking gel (10 mA per gel). The separated proteins were transferred to an immunoblot PVDF membrane (polyvinylidene fluoride membrane) at 100 V for 75 minutes. The membranes were blocked with 5% skim milk solution for 2 hours and then added a primary antibody diluted in the ratio of 1: 750-1,000 in 0.1% tween-20 solution and reacted at 4° C. for 12 hours. After washing three times with TBS-T (Tris-buffered saline and Tween 20 containing Tween 20) and detected with an image analyzer using ECL (enhanced chemiluminescence) solution.

HSP90α = HSP90α (Homo sapiens (Human), UniProt P07900); test: Fluorescence polarization assay, binding ability to HSP90, benzamide compounds; conditions: GA-FITC 100 nM; read-out: HSP90 FP) (IC50; nM)
Experimental: 1 M dithiothreitol (DTT), 10 mg/m: BGG (bovine gamma globulin) were added to hexafluorobenzene (HFB) buffer (20 mM HEPES pH 7.3, 50 mM KCl, 5 mM MgCl2, 20 mM Na2MoO4, 0.01% NP4O, 3rd distilled water) and mixed. Then, 100 nM […] (GA)-FITC (Fluorescein isothiocyanate) was added and reacted at room temperature for 10 minutes. Each 100 μL of the mixture was dispensed into the control wells of a 96-well plate, 2 μL of HSP90α was added to the remaining mixture, and each 100 μL of the other wells was dispensed. […] The binding ability of the compound to HSP90 was expressed as mP (millipolarization unit=1000 mP unit).

SMILES | logP (LogP) | cell death (cell survival) (H1975 [1]; 72 hours, FIG. 2B) | IC50 (H1975 [1]; Homo sapiens, NCI-H1975, read-out: IC50 for H1975) | inhibition at 10 µM (H1975 [1]; Homo sapiens, NCI-H1975, read-out: Inhibition rate at 10 μM (%)) | inhibition at 30 µM (H1975 [1]; Homo sapiens, NCI-H1975, read-out: Inhibition rate at 30 μM (%)) | proliferation rate of the cells (H1975 [1]; non-small cell lung cancer cells, 1, 2 and 3 days, FIG. 2A) | HSP protein inhibition / degradation of HSP90 client protein ([2]; 0.05-1 μM) | concentration at which most of the client proteins were denatured [2] | colony formation of H1975 (H1975 [3]) | EC50 (H1975 cells; read-out: H1975 (EC50; μM)) | EC50 (H1975 cells; read-out: H1975 EC50) | expression of HSP90 client proteins ([4]; H1975, 0.05-1 μM, 24 hours, FIG. 5) | concentration at which expression of HSP70 was increased ([4]; H1975, 24 hours) | concentration at which expression was significantly decreased: EGFR ([4]; H1975, 24 hours) | concentration at which expression was significantly decreased: Her2, Met, and Akt ([4]; H1975, 24 hours) | IC50 (HSP90α)
CC(C)c1cc(C(=O)N2CCN(C)CC2c2ccccc2)c(O)cc1O (stereo not shown) [Compound 17, (2,4-dihydroxy-5-isopropylphenyl)(4-methyl-2-phenylpiperazin-1-yl)methanone] | 3.8 | cell death was also observed | 98000 nM | 72.1% | 77.6% | inhibited in a concentration-dependent manner | inhibited HSP protein in concentration-dependent manner | 500 nM | inhibited |  |  |  |  |  |  | 
CCCNC(=O)c1ccc(CN(C)C(=O)c2cc(C(C)C)c(O)cc2O)cc1 [Compound 21f, 2,4-dihydroxy-5-isopropyl-N-methyl-N-(4-(propylcarbamoyl)benzyl) benzamide] |  |  |  |  |  |  |  |  |  | 0.42 µM | 0.42 µM | inhibited in a concentration-dependent manner | 0.5 µM | 0.1 µM | 0.5 µM | 5.3 nM
